Experimental data as given in patent USRE47221E1, “Tricyclic compounds” (AbbVie Inc., priority 2009, dated 2019).

Molecular target: T1, Jak3 (Homo sapiens, UniProt P52333)
T1 construct: Jak3 enzyme (aa 811-1103); expressed in SF9 cells as a GST fusion; GST; made in house; host or cells: SF9 insect cells
Assay: Jak3 enzyme data for selected compounds
Format: biochemical

T1 sequence (P52333 811-1103): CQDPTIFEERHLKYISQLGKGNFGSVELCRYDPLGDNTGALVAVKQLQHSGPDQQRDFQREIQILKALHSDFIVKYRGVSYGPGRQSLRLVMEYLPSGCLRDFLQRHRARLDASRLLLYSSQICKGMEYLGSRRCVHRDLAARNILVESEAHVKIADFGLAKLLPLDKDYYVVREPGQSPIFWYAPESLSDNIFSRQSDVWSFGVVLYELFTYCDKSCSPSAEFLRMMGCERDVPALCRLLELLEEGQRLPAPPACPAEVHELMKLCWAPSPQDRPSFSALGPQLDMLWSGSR

Row | Compound | IC50 [nM]
1 | C[C@@H]1CCN(C(=O)C2CCS(=O)(=O)C2)C[C@@H]1c1ncc2cnc3[nH]ccc3n12 (mixture of isomers) [H.1.29] | < 100
2 | CC[C@@H]1C[C@H](OCc2ccc(OC)cc2)C[C@H]1c1nnc2cnc3[nH]ccc3n12 (racemic) [D.1.38] | 100 to 1000
3 | C[C@H]1CCN(S(=O)(=O)CCC(F)(F)F)C[C@@H]1Nc1ncc2cnc3[nH]ccc3n12 (racemic) [D.1.66] | > 1000
4 | O=S(=O)(CCC(F)(F)F)N1CCC[C@H]2[C@H]1CCN2c1ncc2cnc3[nH]ccc3n12 (racemic) [D.1.69] | > 1000
5 | CC[C@@H]1C[C@@H](Oc2ccc(C#N)cn2)C[C@H]1c1nnc2cnc3[nH]ccc3n12 (racemic) [D.2.10] | > 1000
6 | CC[C@@H]1C[C@@H](Oc2ccc(C#N)cn2)C[C@@H]1c1nnc2cnc3[nH]ccc3n12 (racemic) [D.2.22] | 100 to 1000
7 | C[C@@H]1CCN(C(=O)C2(C#N)CC2)C[C@@H]1c1ncc2cnc3[nH]ccc3n12 (racemic) [H.3.14] | 100 to 1000
8 | C[C@@H]1CCN(C(=O)N2CCCC2)C[C@@H]1c1ncc2cnc3[nH]ccc3n12 (racemic) [I.2.1] | < 100
9 | C[C@H]1CCN(C(=O)N(C)C)C[C@H]1c1ncc2cnc3[nH]ccc3n12 (racemic) [I.2.2] | < 100
10 | C[C@H]1CCN(C(=O)N2CC(C#N)C2)C[C@H]1c1ncc2cnc3[nH]ccc3n12 (racemic) [J.1.1] | < 100
11 | C[C@@H]1CCN(C(=O)N2CC[C@H](C#N)C2)C[C@@H]1c1ncc2cnc3[nH]ccc3n12 (racemic) [J.2.1] | < 100
12 | C[C@H]1CCN(C(=O)N2CC[C@@H](C)[C@@H](c3ncc4cnc5[nH]ccc5n34)C2)C1 (racemic) [J.2.10] | < 100
13 | C[C@@H]1CCN(c2cnc(C#N)cn2)C[C@@H]1c1ncc2cnc3[nH]ccc3n12 (racemic) [L.1.2] | < 100
14 | C[C@@H]1CCN(c2ncc(C#N)s2)C[C@@H]1c1ncc2cnc3[nH]ccc3n12 (racemic) [L.1.4] | < 100
15 | CC[C@@H]1C[C@H](Oc2cnc(C#N)cn2)C[C@@H]1c1nnc2cnc3[nH]ccc3n12 (relative stereo) [AA.1.37, 5-(3-ethyl-4-(6H-pyrrolo[2,3-e][1,2,4]triazolo[4,3-a]pyrazin-1-yl)cyclopentyloxy)pyrazine-2-carbonitrile] | 100 to 1000
16 | CC[C@@H]1C[C@@H](OCCC(F)(F)F)C[C@@H]1c1nnc2cnc3[nH]ccc3n12 (relative stereo) [AA.1.107, 1-(2-ethyl-4-(3,3,3-trifluoropropoxy)cyclopentyl)-6H-pyrrolo[2,3-e][1,2,4]triazolo[4,3-a]pyrazine] | < 100
17 | N#Cc1ccc(N[C@@H]2CC[C@@H](c3ncc4cnc5[nH]ccc5n34)C2)cc1 (single isomer, unassigned) [AA.1.3] | 100 to 1000
18 | CC[C@H]1C[C@H](NS(=O)(=O)C2CC2)C[C@@H]1c1nnc2cnc3[nH]ccc3n12 (single isomer, unassigned) [AA.1.5] | 100 to 1000
19 | O=C(N1CCC[C@@H](c2cnc3cnc4[nH]ccc4n23)C1)N1CC(F)(F)C1 (single isomer, unassigned) [AA.1.6, (3-(3H-imidazo[1,2-a]pyrrolo[2,3-e]pyrazin-8-yl)piperidin-1-yl)(3,3-difluoroazetidin-1-yl)methanone] | < 100
20 | O=C(N1CCC[C@@H](c2cnc3cnc4[nH]ccc4n23)C1)N1CCC(F)(F)C1 (single isomer, unassigned) [AA.1.8, (3-(3H-imidazo[1,2-a]pyrrolo[2,3-e]pyrazin-8-yl)piperidin-1-yl)(3,3-difluoropyrrolidin-1-yl)methanone] | < 100
21 | O=C(N1CCC(F)(F)CC1)N1CCC[C@@H](c2cnc3cnc4[nH]ccc4n23)C1 (single isomer, unassigned) [AA.1.9, (3-(3H-imidazo[1,2-a]pyrrolo[2,3-e]pyrazin-8-yl)piperidin-1-yl)(4,4-difluoropiperidin-1-yl)methanone] | 100 to 1000

Row | Compound | IC50 [nM]
22 | C[C@@H]1CCN(c2ncc(C#N)s2)C[C@@H]1c1ncc2cnc3[nH]ccc3n12 (single isomer, unassigned) [AA.1.11, 2-(-3-(6H-imidazo[1,5-a]pyrrolo[2,3-e]pyrazin-1-yl)-4-methylpiperidin-1-yl)thiazole-5-carbonitrile] | < 100
23 | C[C@@H]1C[C@H](Nc2cnc(C#N)cn2)C[C@@H]1c1cnc2cnc3[nH]ccc3n12 (single isomer, unassigned) [AA.1.16, 5-(3-(3H-imidazo[1,2-a]pyrrolo[2,3,-e]pyrazin-8-yl)-4-methylcyclopentylamino)pyrazine-2-carbonitrile] | 100 to 1000
24 | C[C@@H]1C[C@H](Nc2cnc(C#N)cn2)C[C@H]1c1cnc2cnc3[nH]ccc3n12 (single isomer, unassigned) [AA.1.18, 5-(3-(3H-imidazo[1,2-a]pyrrolo[2,3,-e]pyrazin-8-yl)-4-methylcyclopentylamino)pyrazine-2-carbonitrile] | < 100
25 | N#Cc1cnc(N2CCC[C@@H](c3cnc4cnc5[nH]ccc5n34)C2)s1 (single isomer, unassigned) [AA.1.22, 2-(3-(3H-imidazo[1,2-a]pyrrolo[2,3,-e]pyrazin-8-yl)piperidin-1-yl)thiazole-5-carbonitrile] | < 100
26 | CC[C@H]1C[C@@H](NS(=O)(=O)C2CC2)C[C@H]1c1cnc2cnc3[nH]ccc3n12 (single isomer, unassigned) [AA.1.25, N-(3-ethyl-4-(3H-imidazo[1,2-a]pyrrolo[2,3-e]pyrazin-8-yl)cyclopentyl)cyclopropanesulfonamide] | < 100
27 | CC[C@@H]1C[C@@H](Oc2ccc(C#N)cn2)C[C@@H]1c1nnc2cnc3[nH]ccc3n12 (single isomer, unassigned) [AA.1.29, 6-(3-ethyl-4-(6H-pyrrolo[2,3-e][1,2,4]triazolo[4,3-a]pyrazin-1-yl)cyclopentyloxy)-nicotinonitrile] | > 1000
28 | CC[C@@H]1C[C@H](OCc2ccc(OC)cc2)C[C@H]1c1nnc2cnc3[nH]ccc3n12 (single isomer, unassigned) [AA.1.32, 1-(2-ethyl-4-(4-methoxybenzyloxy)cyclopentyl)-6H-pyrrolo[2,3-e][1,2,4]triazolo [4,3-a]pyrazine] | 100 to 1000
29 | CC[C@@H]1C[C@@H](Oc2cnc(C#N)cn2)C[C@@H]1c1nnc2cnc3[nH]ccc3n12 (single isomer, unassigned) [AA.1.33, 5-(3-ethyl-4-(6H-pyrrolo[2,3-e][1,2,4]triazolo[4,3-a]pyrazin-1-yl)cyclopentyloxy)pyrazine-2-carbonitrile] | 100 to 1000
30 | CC[C@H]1C[C@@H](COc2cnc(C#N)cn2)C[C@H]1c1nnc2cnc3[nH]ccc3n12 (single isomer, unassigned) [AA.1.42, 5-((cis-3-ethyl-4-(6H-pyrrolo[2,3-e][1,2,4]triazolo[4,3-a]pyrazin-1-yl)cyclopentyl)methoxy)-pyrazine-2-carbonitrile] | > 1000
31 | CC[C@@H]1C[C@H](NS(=O)(=O)C2CC2)C[C@]1(F)c1nnc2cnc3[nH]ccc3n12 (single isomer, unassigned) [AA.1.43, N-(cis-4-ethyl-3-fluoro-3-(6H-pyrrolo[2,3-e][1,2,4]triazolo[4,3-a]pyrazin-1-yl)cyclopentyl)cyclo-propanesulfonamide] | < 100
32 | CC[C@H]1C[C@@H](NS(=O)(=O)C2CC2)C[C@]1(F)c1nnc2cnc3[nH]ccc3n12 (single isomer, unassigned) [AA.1.44, N-(cis-4-ethyl-3-fluoro-3-(6H-pyrrolo[2,3-e][1,2,4]triazolo[4,3-a]pyrazin-1-yl)cyclopentyl)cyclo-propanesulfonamide] | 100 to 1000
33 | CC[C@@H]1CCN(C(=O)CC#N)C[C@@H]1c1ncc2cnc3[nH]ccc3n12 (single isomer, unassigned) [AA.1.54, 3-(cis-4-ethyl-3-(6H-imidazo[1,5-a]pyrrolo[2,3-e]pyrazin-1-yl)piperidin-1-yl)-3-oxopropanenitrile] | 100 to 1000
34 | O=S(=O)(NC[C@H]1CC[C@H](c2ncc3cnc4[nH]ccc4n23)C1)C1CC1 (single isomer, unassigned) [AA.1.60] | 100 to 1000
35 | O=S(=O)(NC[C@H]1CC[C@@H](c2ncc3cnc4[nH]ccc4n23)C1)C1CC1 (single isomer, unassigned) [AA.1.61] | 100 to 1000
36 | O=S(=O)(CCC(F)(F)F)NC[C@H]1CC[C@@H](c2ncc3cnc4[nH]ccc4n23)C1 (single isomer, unassigned) [AA.1.62] | 100 to 1000
37 | O=S(=O)(CCC(F)(F)F)NC[C@H]1CC[C@H](c2ncc3cnc4[nH]ccc4n23)C1 (single isomer, unassigned) [AA.1.63] | > 1000
38 | CCC1CC(CNS(=O)(=O)C2CC2)CC1c1nnc2cnc3[nH]ccc3n12 (single isomer, unassigned) [AA.1.64, N-((3-ethyl-4-(6H-pyrrolo[2,3-e][1,2,4]triazolo[4,3-a]pyrazin-1-yl)cyclopentyl)methyl)cyclopropane sulfonamide] | > 1000
39 | CC[C@@H]1C[C@H](OCC2CCOCC2)C[C@H]1c1nnc2cnc3[nH]ccc3n12 (single isomer, unassigned) [AA.1.66, 1-(2-ethyl-4-((tetrahydro-2H-pyran-4-yl)methoxy)cyclopentyl)-6H-pyrrolo[2,3-e][1,2,4]triazolo[4,3-a]pyrazine] | > 1000
40 | CC[C@@H]1C[C@H](OCC2CCOCC2)C[C@@H]1c1nnc2cnc3[nH]ccc3n12 (single isomer, unassigned) [AA.1.67, 1-(2-ethyl-4-((tetrahydro-2H-pyran-4-yl)methoxy)cyclopentyl)-6H-pyrrolo[2,3-e][1,2,4]triazolo[4,3-a]pyrazine] | > 1000
41 | CC[C@H]1C[C@@H](NS(=O)(=O)CCC(F)(F)F)C[C@H]1c1cnc2cnc3[nH]ccc3n12 (single isomer, unassigned) [AA.1.76, N-(3-ethyl-4-(3H-imidazo[1,2-a]pyrrolo[2,3-e]pyrazin-8-yl)cyclopentyl)-3,3,3-trifluoropropane-1-sulfonamide] | > 1000
42 | CC[C@@H]1C[C@H](NS(=O)(=O)CCC(F)(F)F)C[C@@H]1c1cnc2cnc3[nH]ccc3n12 (single isomer, unassigned) [AA.1.77, N-(3-ethyl-4-(3H-imidazo[1,2-a]pyrrolo[2,3-e]pyrazin-8-yl)cyclopentyl)-3,3,3-trifluoropropane-1-sulfonamide] | < 100
